Data taken from paper PMC12473689, “Drug Metabolism and Pharmacokinetics of Oxazolo[4,5-c]quinoline Analogs as Novel Interleukin-33 Inhibitors” (Pharmaceutics, 2025).

Key:
Format in all cases: in vitro ADME
[1] = Plasma protein binding by equilibrium dialysis (RED), mouse plasma; conditions: male, ICR, equilibrium dialysis 37 °C 4 h, mean ± SD (n = 3), read-out: fu (%) plasma protein binding
Protocol: (§1) The nonspecific binding of KB-1517 and KB-1518 in human and mouse plasma and liver S9 fractions was determined by equilibrium dialysis using a Rapid Equilibrium Device (RED) system (Thermo Fisher Scientific, Seoul, Republic of Korea).
(§2) Working solutions (200 μM for plasma, 60 μM for S9 fractions) were prepared in 40% aqueous acetonitrile. These were diluted 20-fold into either plasma or S9 incubation buffer (1 mg/mL protein, 200 mM Tris-HCl, 2 mM MgCl2, pH 7.4) to create the final dosing solutions.
(§3) For the dialysis, RED inserts (8 kDa MWCO) were used. Into each device, 200 μL of a dosing solution was added to the sample chamber, and 350 μL of PBS was added to the buffer chamber. The plate was sealed and incubated at 37 °C for 4 h on an orbital shaker (100 rpm) to allow the system to reach equilibrium.
(§4) Following incubation, 50 μL aliquots were taken from both chambers. To ensure analytical consistency, the samples were matrix-matched: the sample chamber aliquot was mixed with 50 μL of PBS, and the buffer chamber aliquot was mixed with 50 μL of the corresponding blank matrix (plasma or S9 incubation buffer). Proteins were then precipitated by adding 200 μL of ice-cold acetonitrile containing diclofenac (1 μg/mL) as IS. The samples were subsequently vortexed, sonicated for 5 min, and centrifuged at 4000× g for 20 min. Finally, a 100 μL aliquot of the resulting supernatant was diluted with 100 μL of HPLC-grade water in a 96-well plate for subsequent LC-MS/MS analysis.

[2] = Binding in mouse liver S9 fraction by equilibrium dialysis (RED); conditions: equilibrium dialysis 37 °C 4 h, mean ± SD (n = 3)
Protocol: as §1, §2, §3, §4

[3] = In vitro metabolic stability in pooled human liver S9 fraction; conditions: for remaining at 1 h, 3 µM / half-life at 3 µM: pH 7.4, HLS9 1 mg/mL, 3 µM compound; for remaining at 1 h, 3 µM: cofactors NADPH, UDPGA, PAPS, GSH, 37 °C, read-out: % remaining after 60 min; for half-life at 3 µM: with cofactors, one-phase decay fit, read-out: in vitro t½ (estimated); for microsomal CLint at 3 µM: pH 7.4, HLS9, CLint,u = k/(fu,S9 × [S9]), read-out: CLint,u (unbound intrinsic clearance)
Protocol: (§5) Metabolic stability was assessed using pooled HLS9 and MLS9 fractions. The S9 fractions (20 mg/mL) were diluted to 1 mg/mL with 0.1 M potassium phosphate buffer (pH 7.4). Stock solutions of KB-1517 and KB-1518 (10 mM in DMSO) were diluted in 50% aqueous acetonitrile to prepare working solutions (120 µM). A Tris mix buffer containing 1 M Tris-HCl (pH 7.4), 10 mM MgCl2, and 125 µg/mL alamethicin was prepared. A combined cofactor solution was prepared in 0.1 M potassium phosphate buffer (pH 7.4): 10 mM NADPH, 5 mM UDPGA, 1 mM PAPS, and 25 mM GSH.
(§6) The incubation mixture (final volume 200 µL) contained: 125 µL of deionized water, 40 µL of Tris mix buffer, 10 µL of 20 mg protein/mL S9 fraction (final concentration 1 mg protein/mL), and 5 µL of the test compound working solution (final concentration 3 µM). The final concentrations of DMSO and acetonitrile were 0.03% and 1%, respectively. The mixture was pre-incubated at 37 °C for 5 min in a shaking water bath. The reaction was initiated by adding 20 µL of the combined cofactor solution (final concentrations: 1 mM NADPH, 0.5 mM UDPGA, 0.1 mM PAPS, 2.5 mM GSH). Control incubations were performed without the cofactor mixture (replaced with buffer) and at 0 min (quenched immediately after adding cofactors). Incubations were carried out at 37 °C for 0, 15, 30, and 60 min (for stability) or 60 min (for metabolite ID). Reactions were terminated by adding 200 µL of ice-cold acetonitrile containing IS (diclofenac).
(§7) Terminated samples were sonicated (5 min), vortexed (1500 rpm, 5 min), and centrifuged (3000 rpm, 20 min, 4 °C). An aliquot (150 µL) of the supernatant was transferred to a 96-well plate for LC-MS/MS analysis as described in Section 2.6.2.
(§8) Noncompartmental analysis (NCA) was performed using PKSolver to determine pharmacokinetic parameters from the plasma concentration-time data. Parameters included: maximum plasma concentration (Cmax), time to reach Cmax (tmax), terminal elimination half-life (t1/2), area under the plasma concentration-time curve from time zero to the last measurable concentration (AUClast), area under the plasma concentration-time curve extrapolated to infinity (AUCinf), total body clearance (CL), and volume of distribution at steady state (Vss). Oral bioavailability (F) was calculated as: F(%) = (AUCinf,PO/AUCinf,IV)× (DoseIV/DosePO)×100. Due to the anomalous profile of KB-1517, AUClast was used for its F calculation, and some parameters (t½, CL, Vss for IV; AUCinf for PO) could not be reliably determined (ND). The metabolic rate constant (k) was determined by fitting the in vitro metabolic stability data to a one-phase decay equation via nonlinear regression using GraphPad Prism (Version 10, GraphPad Software, Boston, MA, USA). The in vitro t1/2 was calculated from the equation t1/2 = ln(2)/k. Subsequently, the unbound intrinsic clearance (CLint,u) was calculated as follows: CLint,u = k/(fu,S9 × [S9]), where fu,S9 is the fraction unbound in the S9 incubation and [S9] is the S9 protein concentration.
(§9) The metabolic stability of KB-1517 and KB-1518 was evaluated by incubating the compounds (3 µM) with HLS9 and MLS9 fractions (1 mg/mL) in the presence of a comprehensive set of phase I and phase II cofactors (NADPH, UDPGA, PAPS, and GSH) for up to 60 min.

[4] = Binding in human liver S9 fraction by equilibrium dialysis (RED); conditions: equilibrium dialysis 37 °C 4 h, mean ± SD (n = 3)
Protocol: as §1, §2, §3, §4

[5] = In vitro metabolic stability in pooled mouse liver S9 fraction; conditions: male, ICR; for remaining at 1 h, 3 µM / half-life at 3 µM: pH 7.4, MLS9 1 mg/mL, 3 µM compound; for remaining at 1 h, 3 µM: cofactors NADPH, UDPGA, PAPS, GSH, 37 °C, read-out: % remaining after 60 min; for half-life at 3 µM: with cofactors, one-phase decay fit, read-out: in vitro t½ (estimated); for microsomal CLint at 3 µM: pH 7.4, MLS9, CLint,u = k/(fu,S9 × [S9]), read-out: CLint,u (unbound intrinsic clearance)
Protocol: as §5, §6, §7, §8, §9

[6] = Plasma protein binding by equilibrium dialysis (RED), human plasma; conditions: equilibrium dialysis 37 °C 4 h, mean ± SD (n = 3), read-out: fu (%) plasma protein binding
Protocol: as §1, §2, §3, §4

Row | fraction unbound at 4 h, 10 µM [1] | fraction unbound at 4 h, 3 µM ([2]; ICR, mouse, liver S9 fraction, pH 7.4, mouse liver S9, 1 mg/mL protein, read-out: fu (%) in liver S9 fractions) | fu (%) in liver S9 fractions ([2]; mouse liver S9, 1 mg/mL protein) | remaining at 1 h, 3 µM [3] | half-life at 3 µM [3] | microsomal CLint at 3 µM [3] | fu (%) in liver S9 fractions ([4]; human liver S9, 1 mg/mL protein) | fraction unbound at 4 h, 3 µM ([4]; human, liver S9 fraction, pH 7.4, human liver S9, 1 mg/mL protein, read-out: fu (%) in liver S9 fractions) | remaining at 1 h, 3 µM [5] | half-life at 3 µM [5] | microsomal CLint at 3 µM [5] | fraction unbound at 4 h, 10 µM [6] | Structure (SMILES)
1 | < 0.02 | < 0.2 | 15.1 ± 0.8% | 81.9 ± 0.7% | 3.09 h | 19.6 µL/min/mg | 19.1 ± 0.7% | < 0.2 | 67.2 ± 1% | 3.06 h | 25 µL/min/mg | < 0.02 | CN(C)CCn1c(=O)c2nc(-c3ccc(C(F)(F)F)cc3)oc2c2ccccc21 [KB-1517, 5-(2-(dimethylamino)ethyl)-2-(4-(trifluoromethyl)phenyl)oxazolo[4,5-c]quinolin-4(5H)-one]
2 | – | – | – | 74.2 ± 2.5% | 1.88 h | 101 µL/min/mg | – | – | 57.2 ± 1.3% | 1.24 h | 216 µL/min/mg | – | CN(C)CCOc1nc2ccccc2c2oc(-c3ccc(C(F)(F)F)cc3)nc12 [KB-1518, N,N-dimethyl-2-((2-(4-(trifluoromethyl)phenyl)oxazolo[4,5-c]quinolin-4-yl)oxy)ethan-1-amine]
